Measurements published in PubChem BioAssay (NCI).
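Assay format: 96-well plates, 48-hour exposure. The concentration for 50% growth inhibition is given as GI50. TGI denotes the concentration required for complete inhibition of growth.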

Assays:
Experiment in all cases: inhibition of tumour cell growth, NCI panel, 48 h; in the data active = GI50 below about 0.43 µM; inactive = the rest
786-0 renal = test system: 786-0 renal
A498 renal = test system: A498 renal
A549 NSCLC = test system: A549 NSCLC
ACHN renal = test system: ACHN renal
BT-549 breast = test system: BT-549 breast
CAKI-1 renal = test system: CAKI-1 renal
CCRF-CEM leukemia = test system: CCRF-CEM leukemia
COLO 205 colon = test system: COLO 205 colon
DU-145 prostate = test system: DU-145 prostate
EKVX NSCLC = test system: EKVX NSCLC
HCC-2998 colon = test system: HCC-2998 colon
HCT-116 colon = test system: HCT-116 colon
HCT-15 colon = test system: HCT-15 colon
HL-60(TB) leukemia = test system: HL-60(TB) leukemia
HOP-62 NSCLC = test system: HOP-62 NSCLC
HOP-92 NSCLC = test system: HOP-92 NSCLC
HS 578T breast = test system: HS 578T breast
HT29 colon = test system: HT29 colon
IGROV1 ovarian = test system: IGROV1 ovarian
K-562 leukemia = test system: K-562 leukemia
KM12 colon = test system: KM12 colon
LOX IMVI melanoma = test system: LOX IMVI melanoma
M14 melanoma = test system: M14 melanoma
MALME-3M melanoma = test system: MALME-3M melanoma
MCF7 breast = test system: MCF7 breast
MDA-MB-231 breast = test system: MDA-MB-231 breast
MDA-MB-435 = test system: MDA-MB-435
MOLT-4 leukemia = test system: MOLT-4 leukemia
NCI-H226 lung = test system: NCI-H226 lung
NCI-H23 lung = test system: NCI-H23 lung
NCI-H460 lung = test system: NCI-H460 lung
NCI-H522 lung = test system: NCI-H522 lung
NCI/ADR-RES ovarian = test system: NCI/ADR-RES ovarian
OVCAR-3 ovarian = test system: OVCAR-3 ovarian
OVCAR-4 ovarian = test system: OVCAR-4 ovarian
OVCAR-5 ovarian = test system: OVCAR-5 ovarian
OVCAR-8 ovarian = test system: OVCAR-8 ovarian
PC-3 prostate = test system: PC-3 prostate
RPMI-8226 leukemia = test system: RPMI-8226 leukemia
SF-268 CNS = test system: SF-268 CNS
SF-295 CNS = test system: SF-295 CNS
SF-539 CNS = test system: SF-539 CNS
SK-MEL-2 melanoma = test system: SK-MEL-2 melanoma
SK-MEL-28 melanoma = test system: SK-MEL-28 melanoma
SK-MEL-5 melanoma = test system: SK-MEL-5 melanoma
SK-OV-3 ovarian = test system: SK-OV-3 ovarian
SN12C renal = test system: SN12C renal
SNB-19 CNS = test system: SNB-19 CNS
SNB-75 CNS = test system: SNB-75 CNS
SR leukemia = test system: SR leukemia
SW-620 colon = test system: SW-620 colon
T-47D breast = test system: T-47D breast
TK-10 renal = test system: TK-10 renal
U251 CNS = test system: U251 CNS
UACC-257 melanoma = test system: UACC-257 melanoma
UACC-62 melanoma = test system: UACC-62 melanoma
UO-31 renal = test system: UO-31 renal

Cn1ncc2ncc(-c3ccc4ncc(C#N)c(N5CCc6cc(F)c(Cl)cc65)c4c3)cc21
79 µM: TGI (CAKI-1 renal)
14.6 µM: TGI (EKVX NSCLC)
7.7 µM: TGI (A498 renal)
10.5 µM: TGI (UO-31 renal)
11.7 µM: TGI (UACC-62 melanoma)
14.9 µM: TGI (MALME-3M melanoma)
11.8 µM: TGI (MDA-MB-435)
5.47 µM: TGI (SNB-75 CNS)
38.4 µM: TGI (LOX IMVI melanoma)
8.75 µM: TGI (HOP-92 NSCLC)
inactive: GI50 (786-0 renal) 4.13 µM | GI50 (A498 renal) 2.61 µM | GI50 (A549 NSCLC) 4.05 µM | GI50 (ACHN renal) 2.49 µM | GI50 (BT-549 breast) 3.75 µM | GI50 (CAKI-1 renal) 2.31 µM | GI50 (CCRF-CEM leukemia) 4.62 µM | GI50 (COLO 205 colon) 5.8 µM | GI50 (DU-145 prostate) 4.05 µM | GI50 (EKVX NSCLC) 2.35 µM | GI50 (HCC-2998 colon) 3.26 µM | GI50 (HCT-116 colon) 9.79 µM | GI50 (HCT-15 colon) 3.49 µM | GI50 (HL-60(TB) leukemia) 7.84 µM | GI50 (HOP-62 NSCLC) 2.74 µM | GI50 (HOP-92 NSCLC) 2.27 µM | GI50 (HS 578T breast) 1.44 µM | GI50 (HT29 colon) 3.82 µM | GI50 (IGROV1 ovarian) 1.22 µM | GI50 (K-562 leukemia) 4.73 µM | GI50 (KM12 colon) 5.35 µM | GI50 (LOX IMVI melanoma) 2.26 µM | GI50 (M14 melanoma) 6.02 µM | GI50 (MALME-3M melanoma) 2.14 µM | GI50 (MCF7 breast) 2.44 µM | GI50 (MDA-MB-231 breast) 2.6 µM | GI50 (MDA-MB-435) 3.13 µM | GI50 (MOLT-4 leukemia) 3.01 µM | GI50 (NCI-H226 lung) 1.86 µM | GI50 (NCI-H23 lung) 4.8 µM | GI50 (NCI-H460 lung) 4.93 µM | GI50 (NCI-H522 lung) 3.28 µM | GI50 (NCI/ADR-RES ovarian) 3.27 µM | GI50 (OVCAR-3 ovarian) 2.66 µM | GI50 (OVCAR-4 ovarian) 2.64 µM | GI50 (OVCAR-5 ovarian) 3.71 µM | GI50 (OVCAR-8 ovarian) 4.47 µM | GI50 (PC-3 prostate) 2.27 µM | GI50 (RPMI-8226 leukemia) 3.28 µM | GI50 (SF-268 CNS) 4.11 µM | GI50 (SF-295 CNS) 2.57 µM | GI50 (SF-539 CNS) 3.78 µM | GI50 (SK-MEL-2 melanoma) 5.65 µM | GI50 (SK-MEL-28 melanoma) 4.92 µM | GI50 (SK-MEL-5 melanoma) 6.97 µM | GI50 (SK-OV-3 ovarian) 2.71 µM | GI50 (SN12C renal) 1.93 µM | GI50 (SNB-19 CNS) 6.72 µM | GI50 (SNB-75 CNS) 0.769 µM | GI50 (SR leukemia) 3.67 µM | GI50 (SW-620 colon) 7.04 µM | GI50 (T-47D breast) 2.03 µM | GI50 (TK-10 renal) 9.02 µM | GI50 (U251 CNS) 5.46 µM | GI50 (UACC-257 melanoma) 9.46 µM | GI50 (UACC-62 melanoma) 1.65 µM
> 100 µM: TGI (786-0 renal) | TGI (A549 NSCLC) | TGI (ACHN renal) | TGI (CCRF-CEM leukemia) | TGI (COLO 205 colon) | TGI (DU-145 prostate) | TGI (HCC-2998 colon) | TGI (HCT-116 colon) | TGI (HCT-15 colon) | TGI (HL-60(TB) leukemia) | TGI (HOP-62 NSCLC) | TGI (HT29 colon) | TGI (K-562 leukemia) | TGI (KM12 colon) | TGI (M14 melanoma) | TGI (MCF7 breast) | TGI (MOLT-4 leukemia) | TGI (NCI-H23 lung) | TGI (NCI-H460 lung) | TGI (NCI-H522 lung) | TGI (NCI/ADR-RES ovarian) | TGI (OVCAR-5 ovarian) | TGI (OVCAR-8 ovarian) | TGI (PC-3 prostate) | TGI (RPMI-8226 leukemia) | TGI (SF-268 CNS) | TGI (SF-295 CNS) | TGI (SK-MEL-28 melanoma) | TGI (SK-OV-3 ovarian) | TGI (SN12C renal) | TGI (SNB-19 CNS) | TGI (SR leukemia) | TGI (SW-620 colon) | TGI (TK-10 renal) | TGI (U251 CNS) | TGI (UACC-257 melanoma)
21.9 µM: TGI (SK-MEL-5 melanoma)
61.7 µM: TGI (SF-539 CNS)
31.5 µM: TGI (OVCAR-4 ovarian)
85.6 µM: TGI (BT-549 breast)
83.6 µM: TGI (OVCAR-3 ovarian)
37.7 µM: TGI (SK-MEL-2 melanoma)
31.1 µM: TGI (T-47D breast)
4.61 µM: TGI (IGROV1 ovarian)
5.41 µM: TGI (HS 578T breast)
active: GI50 (UO-31 renal) 0.251 µM
20.9 µM: TGI (NCI-H226 lung)
28.1 µM: TGI (MDA-MB-231 breast)
